The values that follow come from patent publication US9987333B2, “Method for suppressing malignant tumor metastasis” (Shionogi & Co., Ltd., priority 2012, dated 2018).

Assay [1] has as its system Mouse melanoma B16-F10. As to the kind of experiment: Tail vein injection metastasis test, mouse melanoma B16-F10, CDDP pretreatment with angiotensin II receptor antagonists (Example 2). The settings on record: 14 days; for exacerbation of lung metastasis caused by CDDP: oral, with CDDP 5 mg/kg, valsartan 40, losartan 30, olmesartan medoxomil 5, azilsartan 10, candesartan cilexetil 8, irbesartan 100 mg/kg. The assay is classed as in vivo, mice. The procedure: Eight-week-old male C57BL6 mice (purchased from Japan SLC, Inc.) were used. Mouse melanoma B16-F10 was purchased from ATCC, and cultured in DMEM (Life Technologies Corp.) containing 10% FCS under 5% CO2 at 37° C. The cells in a subconfluent state were treated with EDTA-trypsin, centrifuged, and then suspended in serum free DMEM so as to be 5×10^6 cells/mL. The melanoma cell suspension (100 μL/mouse, […]) was injected to the tail vein of the mice. As pretreatment, 5 mg/kg of cisplatin (CDDP) was injected to the tail vein of the mice 2 days before the injection of the melanoma cells into the tail vein. As an angiotensin II receptor antagonist, used were valsartan (trade name: Diovan made by Novartis Pharma K.K.), losartan (trade name: Nu-Lotan made by MSD K.K.), olmesartan medoxomil (trade name: Olmetecmade by Daiichi Sankyo Co., Ltd.), azilsartan (trade name: Azilva made by Takeda Pharmaceutical Co., Ltd.), candesartan cilexetil (trade name: Blopress made by Takeda Pharmaceutical Co., Ltd.), and irbesartan (trade name: Avapro made by Sumitomo Dainippon Pharma Co., Ltd.). To the angiotensin II receptor antagonist group, a 0.5% methylcellulose aqueous solution prepared so as to contain valsartan (40 mg/kg), losartan (30 mg/kg), olmesartan medoxomil (5 mg/kg), azilsartan (10 mg/kg), candesartan cilexetil (8 mg/kg), or irbesartan (100 mg/kg) was orally given for 4 days before the start of the experiment (before the injection of tumor cells to mice). After the injection of tumor cells, the oral intake of methylcellulose aqueous solutions containing telmisartan or pitavastatin in the above doses in the angiotensin II receptor antagonist group and the pitavastatin group was continued until the end of the experiment. To the control group, a 0.5% methylcellulose aqueous solution not containing any of the agents was orally given before the start of the experiment. The sample size of each group was n=5. The condition of the lung metastasis of the tumor cells 2 weeks (14 days) after the tumor cell injection was observed.

In assay [2] the test system is Mouse melanoma B16-F10. As to the kind of experiment: Tail vein injection metastasis test, mouse melanoma B16-F10 (Example 1). It counts as in vivo, mice. The procedure:
Six-week-old male C56BL/6N mice (purchased from Japan SLC, Inc.) were used. Mouse melanoma B16-F10 was purchased from ATCC, and cultured in DMEM (Life Technologies Corp.) containing 10% FCS under 5% CO2 at 37° C. The cells in a subconfluent state were treated with EDTA-trypsin, centrifuged, and then suspended in serum free DMEM so as to be 5×10^6 cells/mL. The melanoma cell suspension (100 μL/mouse, 5×10^5 cells) was injected to the tail vein of the mice.
For the CDDP group, 5 mg/kg of CDDP was injected, as pretreatment, to the tail vein of the mice 2 days before the injection of the melanoma cells into the tail vein. For the control group, an osmotic pump containing 0.9% physiological saline was subcutaneously implanted in the back of each mouse on the day before the injection of the melanoma cells into the tail vein. Similarly, for the adrenomedullin group, an osmotic pump containing adrenomedullin prepared for administration at 0.05 μg/kg/min was subcutaneously implanted into each mouse, and for the ghrelin group, an osmotic pump containing ghrelin prepared for administration at 0.08 μg/kg/min was subcutaneously implanted into each mouse. The tail vein injection of the melanoma cells was performed as above and the drug administration was continued for 2 weeks. The condition of the lung metastasis of the tumor cells 2 weeks after the tumor cell injection was observed (FIG. 1).
To the angiotensin II receptor antagonist group, a 0.5% methylcellulose aqueous solution prepared so as to contain 2 mg/kg or 8 mg/kg of telmisartan was orally given for 4 days before the start of the experiment (before the injection of tumor cells to mice), and to the pitavastatin group, a 0.5% methylcellulose aqueous solution prepared so as to contain 20 mg/kg of pitavastatin was orally given for the same period. After the injection of tumor cells, the oral intake of methylcellulose aqueous solutions containing telmisartan or pitavastatin in the above doses in the angiotensin II receptor antagonist group and the pitavastatin group was continued until the end of the experiment. To the control group, a 0.5% methylcellulose aqueous solution not containing any of the agents was orally given before the start of the experiment. Also, as reference example, angiotensin II was administered at 1 μg/kg/min, and then the experiment was conducted in the same way. The sample size of each group was n=5.
In contrast, in both of the telmisartan 2 mg/kg group and the telmisartan 8 mg/kg group, the exacerbation by CDDP was suppressed. The telmisartan 2 mg/kg (CDDP group) and the telmisartan 8 mg/kg (CDDP group) shown in FIGS. 3 and 4 are groups to which 2 mg/kg or 8 mg/kg of telmisartan was given in the manner described above before CDDP was injected as pretreatment. The pitavastatin (CDDP group) is the group to which pitavastatin was given in the manner described above before CDDP was injected as pretreatment.

The subject of assay [3] is Human lung arterial microvascular endothelial cells. As to the kind of experiment: Adhesion of A549-GFP human lung cancer cells to human lung arterial microvascular endothelial cells in co-culture (Example 3). The assay is classed as cell-based. The conditions noted are these: 3 h co-culture. The procedure: Human lung arterial microvascular endothelial cells were cultured to confluence, losartan was added thereto (to a final concentration of 5×10^−6 M), and 2 hours later, phosphate buffered saline (PBS) or cisplatin (CDDP) was added (to a final concentration of 5 μM). An hour later, the culture medium was replaced with a fresh culture medium (Medium 199 containing 1% BSA). To this, a suspension of fluorescently-labeled A549 human lung cancer cells (1×10^5 cells) was added, and the cells were co-cultured for 3 hours. After the co-culture, non-adherent cancer cells were washed out with cold PBS, and then 15-minute fixation with 4% formalin was performed. […] In FIG. 9A, spots which appear gray (actually green) are fluorescently-labeled A549-GFP human lung cancer cells. In FIG. 9B, white bars are for the control (without losartan pretreatment), and black bars are for the cases with losartan pretreatment. The vertical axis indicates the number of cancer cells that adhered (*: P<0.05).
Human lung arterial microvascular endothelial cells (manufactured by Lonza Japan) were cultured to confluence, losartan was added thereto (to a final concentration of 5×10^−6 M), and 2 hours later, phosphate buffered saline (PBS) or cisplatin (CDDP) was added (to a final concentration of 5 μM). […]

The subject of another assay is tumor. The settings on record: Non Patent Literature 27; cited from earlier work.
Another assay has as its system colon cancer cells. The settings on record: Non Patent Literature 24; cited from earlier work.
Another assay concerns renal cell carcinoma. The settings on record: Non Patent Literature 23; cited from earlier work.
Assay [4] deals with human umbilical vein endothelial cells (HUVECs). The settings on record: Non Patent Literature 29; cited from earlier work.
The test system of another assay is E select in. The settings on record: Non Patent Literature 29; cited from earlier work.

Regarding `[NH2][Pt]([NH2])([Cl])[Cl]` [CDDP, cisplatin], the “tumor metastasis (number of lung nodules)” value with Mouse melanoma B16-F10 [1] (CDDP 5 mg/kg tail vein 2 days before melanoma injection, vs control) is “augmented”. The “lung metastasis of melanoma (number of nodules formed in the lungs)” value in the assay on Mouse melanoma B16-F10 [2] (CDDP 5 mg/kg tail vein 2 days before melanoma injection, compared to the control group) is “significantly increased”. Besides, in assay [3] (1-hour pretreatment with 5 μM CDDP), the “number of cancer cells adhered to the vascular endothelial cells” value is on record as “increased”. With `CCOc1nc2cccc(C(=O)O)c2n1Cc1ccc(-c2ccccc2-c2nc(=O)o[nH]2)cc1` [azilsartan], the “exacerbation of lung metastasis caused by CDDP” value in the assay with Mouse melanoma B16-F10 [1] was “significantly suppressed”. As to `CCOc1nc2cccc(C(=O)OC(C)OC(=O)OC3CCCCC3)c2n1Cc1ccc(-c2ccccc2-c2nn[nH]n2)cc1` (stereo not shown) [candesartan cilexetil], the “exacerbation of lung metastasis caused by CDDP” value with Mouse melanoma B16-F10 [1] was “significantly suppressed”. Moreover, the “angiogenesis and metastasis of a tumor” value with tumor was “suppressed”. As to `CCCCC1=NC2(CCCC2)C(=O)N1Cc1ccc(-c2ccccc2-c2nnn[nH]2)cc1` [irbesartan], in the assay on Mouse melanoma B16-F10 [1], the “exacerbation of lung metastasis caused by CDDP” value is on record as “significantly suppressed”. Take `CCCCc1nc(Cl)c(CO)n1Cc1ccc(-c2ccccc2-c2nn[nH]n2)cc1` [losartan]: the “liver metastasis of colon cancer cells” value in the assay with colon cancer cells is “suppressed”. Also, in the assay on Mouse melanoma B16-F10 [1], the “exacerbation of lung metastasis caused by CDDP” value is given as “significantly suppressed”. Further, the “adhesion of cancer cells to the vascular endothelial cells” value in assay [3] (losartan 5×10^−6 M 2 hours before 5 μM CDDP pretreatment) was “significantly suppressed”. Moreover, in the assay on renal cell carcinoma, the “lung metastasis of renal cell carcinoma increased by cyclosporin (Cs)” value is recorded as “suppressed”. With `CC[C@H](C)C(=O)O[C@H]1C[C@@H](C)C=C2C=C[C@H](C)[C@H](CC[C@@H]3C[C@@H](O)CC(=O)O3)[C@H]21` [lovastatin], the “adhesion of colon cancer cells to human umbilical vein endothelial cells (HUVECs)” value in assay [4] is reported as “inhibits”. Further, in the assay with E select in, the “E select in expression” value was “inhibits”. Consider `CCCc1nc(C(C)(C)O)c(C(=O)OCc2oc(=O)oc2C)n1Cc1ccc(-c2ccccc2-c2nnn[nH]2)cc1` [olmesartan medoxomil], for which the “exacerbation of lung metastasis caused by CDDP” value in the assay on Mouse melanoma B16-F10 [1] is “significantly suppressed”. For `O=C(O)C[C@H](O)C[C@H](O)/C=C/c1c(C2CC2)nc2ccccc2c1-c1ccc(F)cc1` [pitavastatin], the “exacerbation of the lung metastasis by CDDP” value in the assay with Mouse melanoma B16-F10 [2] (pitavastatin 20 mg/kg orally before CDDP (5 mg/kg) pretreatment, 14 days) is “significantly suppressed”. `CCCc1nc2c(C)cc(-c3nc4ccccc4n3C)cc2n1Cc1ccc(-c2ccccc2C(=O)O)cc1` [telmisartan]: the “exacerbation of lung metastasis by CDDP” value in the assay on Mouse melanoma B16-F10 [2] (telmisartan 2 mg/kg orally before CDDP (5 mg/kg) pretreatment, 14 days) is recorded as “suppressed”; with Mouse melanoma B16-F10 [2] (telmisartan 8 mg/kg orally before CDDP (5 mg/kg) pretreatment, 14 days), “suppressed”. In the assay on Mouse melanoma B16-F10 [2] (telmisartan 8 mg/kg orally, alone, 14 days after tumor cell injection, vs control), the “lung metastasis of melanoma (number of nodules formed in the lungs)” value was “significantly suppressed”. Turning to `CCCCC(=O)N(Cc1ccc(-c2ccccc2-c2nnn[nH]2)cc1)[C@H](C(=O)O)C(C)C` [valsartan], the “exacerbation of lung metastasis caused by CDDP” value with Mouse melanoma B16-F10 [1] is listed as “significantly suppressed”.
